Where no end group is shown, it is not given here.
Legend:
[1] = test system: HaCat; assay: scratched wound-healing assay of skin cell regeneration; type: cell-based, human; conditions: 1 μM peptide, 12 hrs incubation
Protocol: To examine whether each of the peptides synthesized in Example 1 can enhance the regeneration of skin cells, a scratched wound-healing assay was used. 900 μL of a suspension containing HaCat at a concentration of 1×10^5 CFU/ml was placed in each well of 12-well plates and incubated for 3 days. […] A clear zone was set at the center of each well of the plate using a yellow tip. After incubation for 12 hrs, a reduced area of the clear zone was measured to determine the effect of each peptide on the regeneration of skin cells (FIG. 2). For a control, no peptides were used.

[2] = test system: human skin cell HaCat; assay: boyden chamber assay of skin cell migration; type: cell-based; set-up: migration of skin cells relative to a control: dose or concentration left out as unconfirmed; conditions: for skin cell migratory activity relative to the control: 1 μM peptide (most effective concentration), HaCat, control: medium without peptide; for migration of skin cells relative to a control: boyden chamber assay
Protocol: To examine whether each of the peptides synthesized in Example 1 could promote the migration of skin cells, a boyden chamber assay was used.
In the chamber of two compartments separated by a microporous membrane, 50 μL of a suspension containing the human skin cell HaCat at a concentration of 5×10^3 CFU/ml was placed in the upper compartment and were allowed to migrate through the pores of the membrane into the lower compartment in which a 0.25˜16 μM dilution of each of the peptides in a skin cell culture medium was present. The cells which migrated into the lower compartment were counted to determine the ability of each of the peptides to promote skin cell […] (FIG. 1). For a control, a skin cell culture medium containing none of the peptides was used.

[3] = test system: full-thickness wound; assay: full-thickness wound healing on the back of mice; type: in vivo; conditions: 50 μL of 1 μM peptide applied to wound once a day for two days
Protocol: Mice were shaved on the back using an electric razor, followed by forming a full-thickness wound 1.1 cm in diameter using surgical scissors. Application of 50 μL of 1 μM peptide 17 to the wound was continued for 2 days, after which the size of the wound was measured. The wound healing activity of peptide 17 was expressed by the reduced area of the wound (FIG. 3). As the control, the mice were treated with distilled water instead of peptide 17.

| Sequence | rate of regeneration of skin cells (reduced area of clear zone) versus no peptide [1] | skin cell migratory activity relative to the control [2] | migration of skin cells relative to a control [2] | rate of reduction of wound area versus distilled water control [3] |
| --- | --- | --- | --- | --- |
| APKAMRLLRRLLRLQKKGI (APKAMRLLRRLLRLQKKGI-NH2) [Peptide 26] | 2.5 fold | about 4.5 times that of the control | 4.5 times higher than a control | – |
| APKAMKLLKKLLKLQKKGI (APKAMKLLKKLLKLQKKGI-NH2) [Peptide 17] | 2.5 fold | about 4.5 times that of the control | 4.5 times higher than a control | 7 fold |
